Laboratory results published in the OligoGym collection.
These antisense oligonucleotides have a phosphorothioate backbone; sugars and methylation of C are not fully specified.

These sequences were tested against GNA12. Conditions: ASO.
Further: test concentration or dose not given here.

Sequence | remaining target (mRNA or protein) (fraction of control)
CTCAGGGCCGGGACGTAC | 0.77
CTCCAGCAGCGCCTTCTG | ≥ 1
CTCGCGGCCGTGGATGAT | 0.99
CTGAGGGTCCGCACCACC | ≥ 1
CTGGAACCACTTCTGGCG | 0.89
CTGGAGGAGACCATGAAC | ≥ 1
CTTATCTCGTGCATCAAC | 0.51
CTTGGTGGCTTTCCTAGC | ≥ 1
GAAAGCCTCCCTGATGCC | 0.38
GAAGCGGACGTTCTCGGT | ≥ 1
GATATCTTGCTTACTAGG | 0.37
GCAGGATCTTCACCAGGC | 0.93
GCGCATCTGCTTGAGGAA | 0.82
GCGCCTTCTGGTCGAACT | 0.72
GCTCACGGTCTTCACCTT | ≥ 1
GCTTGAGGAACGTGGACT | 0.31
GGAAGAGAATGATGGAGA | ≥ 1
GGAAGTACTTCACCGACT | ≥ 1
GGACCTGGTCGTACTCGC | 0.42
GGATGATGCGCATCTGCT | ≥ 1
GGCAGCGGCTGAGGGTCC | 0.68
GGGACGTACAGCTGGAAG | 0.53
GGTGCGCCTGTCCTCCAT | 0.33

Sequence | remaining target (mRNA or protein) (fraction of control)
GGTGGAAGAGTGGCTTGC | 0.65
GGTTCTCCTGCAGGATGG | 0.93
GTCCATCTTGTTGAGGAA | 0.68
GTCGATGTCGCGGCTACG | ≥ 1
GTCGTACTCGCTGGAGGA | 0.39
GTGCATCAACAAGAACCC | 0.89
GTGCGCTCAGGGCCGGGA | 0.72
GTGGACTTGCCGCTCTCG | ≥ 1
GTGGTGAAGTGGTGGAAG | 0.87
GTTCCGTCTCTTCCTGTC | 0.36
GTTGAAGAAGAGCTTGTT | 0.33
TCAGGAACATCCCATGCT | 0.79
TCCATGAGGACCTGGTCG | 0.79
TCCGGTCCAAGTTGTCCA | 0.88
TCGAAGATGGTGTCGCGG | 0.98
TCTGGTCGAACTCGCGGC | 0.7
TCTTCTTAATAACGAAGT | 0.48
TGGTCTCGAAGATGTTCA | 0.53
TGTCGCGGAACTCCAGCA | 0.79
TTAATAACGAAGTCATGC | 0.73
TTCATGGACTCCACCAGC | 0.57
TTGTTGACGATGGTCTCG | 0.73
TTTTCAGAATACTGCCAA | 0.63

The sequences below were run against ICAM1. Conditions: ASO.

Sequence | remaining target (mRNA or protein) (fraction of control)
AACCTCGCGC | 0.96
ACACATACACACACACACACA | 0.54
AGCCACCTGGGGGCCAAGGGG | ≥ 1
AGCCATAGCGAGGC | 0.64
AGCCATAGCGAGGCTGAGGTT | 0.2
AGCGAGGCTG | 0.97
AGCGAGGCTGAG | 0.79
AGCTGCGCTGCTACCTGCAC | 0.25
ATAGCGAGGC | ≥ 1
CAAGTGTGCATCCCCCAGGC | 0
CACATGTCTATGGAGGG | 0.89
CATAGCGAGGCTGAGGTTGC | 0.39
CCAGAGGAAGTGGCTGAGGG | 0.35
CCATAGCGAGGC | ≥ 1
CCCCCACCACTTCCCCTCTC | 0
CCCCCACCACTTCCCCTCTCA | 0.07
CCCCGACTCACCTGGGAACAG | 0.66
CCCGGAAACCTCGCGC | 0.88

The sequences below were run against PDPK1. Conditions: ASO.

Sequence | remaining target (mRNA or protein) (fraction of control)
AAAAGAGCCTTCCCCAAG | 0.88
AAACTGGCTCAGGAGATT | 0.26
AAAGGTCTGAACTCTTAC | 0.59
AAATAAACCCTTCCGCTT | 0.74
AACAACAACCTCTTCTCA | 0.7
AACTGGTGCCAAGGGTTT | 0.54
AAGGCCGAAATACAGCTT | 0.29
AAGGTCCCTGTGAATGAT | 0.39
ACTGGATGGGCACGGCGT | 0.63
AGACTTTTGCTGTTCCAA | 0.28
AGCGTCCTCCTCCCCGAA | 0.87
AGCTGGCTGGTGGTCCTG | 0.36
AGGCGCGACATGACATCC | 0.25
ATAGCAGTCCTCGTCGTC | 0.57
ATATTCTCTGGAGGTTGC | 0.78
ATCGGGTACAGGTCTCAT | 0.68
ATGTGGTCCTTCTGTGAG | ≥ 1
ATGTTTTCCGGTTTAAGG | 0.66
ATTGTCATAATTGCCATA | 0.78
ATTTTCTACAAACTGGTG | 0.83
CAAGAGCCCAAAGGTCTG | ≥ 1
CAAGGTTTCCGCCTCTGC | 0.26
CAAGTACTCTAAAGCAGA | 0.65
CACTGCACAGCGGCGTCC | ≥ 1
CAGCTTCTCGTCGTCCTG | 0.26
CAGGACAACCGTGGAAAA | ≥ 1

Sequence | remaining target (mRNA or protein) (fraction of control)
CAGTCTGGGTCCTCACCA | 0.54
CATCCCGCTCTCTGGTTA | 0.41
CCAGCTCGGAATGGTGGG | 0.82
CCTGAAATGTGAAGTAAA | ≥ 1
CGAAGTTCTTGTGACCAA | ≥ 1
CGATCTCAGCCGTGTAAA | 0.13
CTCAGGCCGCTTCTTCCG | 0.53
CTCTAAAGCAGACACAAT | 0.71
CTGAAATGTGAAGTAAAG | 0.45
CTGACAGGGAGTGTGAGG | ≥ 1
CTGCTCTATGTTGCTGCC | 0.55
CTGGTATCGCTGCCTCCA | 0.22
CTTCCATTTCCTCACAGC | 0.33
GAAGTCCTCAGGCCGCTT | 0.28
GACATCCCGCTCTCTGGT | 0.68
GAGTTGGCCCTGGCTTGT | 0.5
GATTTTGCGAATATATTT | ≥ 1
GCAGGAACATAACACCAC | 0.54
GCAGGTGTCCTGGCAGCG | 0.49
GCATATTCTCTGGAGGTT | ≥ 1
GCATGCTGCAGGGAGCCG | ≥ 1
GCGTCCTCCTCCCCGAAG | ≥ 1
GCTGCAAGGTTTCCGCCT | ≥ 1
GCTGCCTCCAAACCTCCT | ≥ 1
GCTGTTCCCACGAATGAG | 0.39
GGACTTCTCCGTGAGCAG | 0.28

Sequence | remaining target (mRNA or protein) (fraction of control)
GGAGGCTGGGCATGCTGC | 0.16
GGTACAGGTCTCATCGAA | 0.1
GGTCTCTTGCCTTAGGGA | 0.37
GGTGTGCTTTAAGAGGTC | 0.6
GTCCCTGTGAATGATGCC | 0.24
GTGAGGAGGAGGACGAAG | 0.7
GTGCTGGACTCAGTCTGG | 0.51
GTTCAAAGGAGTTCGAGT | 0.5
GTTTCCGCCAGCCTGCTT | ≥ 1
TAAACCCTTCCGCTTATC | ≥ 1
TAAAGCTTAACAAAGAAG | ≥ 1
TAAGTCCAGTTCAAAGGA | 0.75
TATGATATGTCGCTTCTC | 0.42
TCCTGTTAGGCGTGTGGA | 0.53
TCTGGAGAAACGTACTGC | ≥ 1
TGAGCAGCTCTGGAGAAA | 0.85
TGGACAAAGAAAGTTTTA | ≥ 1
TGGATGTGCATATCTTCA | 0.81
TGGCATCTAAAACCAAAA | ≥ 1
TGGCTGGCAGGTGGTCTG | 0.2
TTGCTGTTCCAAAATCTG | ≥ 1
TTGGCCCTGGCTTGTTTG | 0.23
TTTAAGTAGTTCTCCATT | 0.39
TTTATGATATGTCGCTTC | ≥ 1
TTTGTTGACAGGATCCAC | 0.72
